Reference: the NIST ThermoML archive (doi:10.1021/je200668a)
Several values for one entry are separate records, joined by “and”; a condition that tells them apart may be missing. Equal entries are not always repeated. ± gives the expanded uncertainty stated by the source.

Settings: Liquid, Pulse Transmission

O [water]
Settings	speed of sound
288.13 K, 250900 kPa	1878.5 ± 2.7 m/s
288.13 K, 300400 kPa	1955.1 ± 2.9 m/s
288.13 K, 701000 kPa	2453.9 ± 4 m/s
288.14 K, 150300 kPa	1718.5 ± 2.4 m/s
288.15 K, 50900 kPa	1550.1 ± 2 m/s
288.15 K, 349200 kPa	2025.9 ± 3 m/s
288.15 K, 499800 kPa	2225.2 ± 3.4 m/s
288.16 K, 99800 kPa	1631.8 ± 2.2 m/s
288.16 K, 200200 kPa	1800.9 ± 2.6 m/s
288.17 K, 99700 kPa	1633.2 ± 2.2 m/s
288.17 K, 401300 kPa	2098 ± 3.3 m/s
288.17 K, 561300 kPa	2300.1 ± 3.6 m/s
288.17 K, 640700 kPa	2391.2 ± 3.8 m/s
297.74 K, 702200 kPa	2448.7 ± 3.9 m/s
297.78 K, 653200 kPa	2402.2 ± 3.8 m/s
297.79 K, 250300 kPa	1895.5 ± 2.9 m/s
297.79 K, 549700 kPa	2286.1 ± 3.7 m/s
297.8 K, 499500 kPa	2225.4 ± 3.4 m/s
297.82 K, 601700 kPa	2346.1 ± 3.8 m/s
297.83 K, 300300 kPa	1967.2 ± 3 m/s
297.84 K, 200200 kPa	1819.5 ± 2.7 m/s
297.88 K, 50600 kPa	1580.3 ± 2.2 m/s
297.88 K, 151000 kPa	1743.2 ± 2.6 m/s
297.89 K, 400300 kPa	2101.3 ± 3.2 m/s
297.9 K, 100 kPa	1493.8 ± 1.9 m/s
297.9 K, 450500 kPa	2165.2 ± 3.4 m/s
297.99 K, 99500 kPa	1660.6 ± 2.6 m/s
298.05 K, 349200 kPa	2035.4 ± 3 m/s
298.07 K, 699900 kPa	2450.3 ± 3.9 m/s
298.09 K, 659800 kPa	2412.6 ± 3.8 m/s
298.1 K, 599200 kPa	2344.5 ± 3.7 m/s
298.11 K, 551300 kPa	2287 ± 3.6 m/s
298.12 K, 350600 kPa	2038.7 ± 3.1 m/s
298.15 K, 400500 kPa	2103.8 ± 3.2 m/s
298.15 K, 500000 kPa	2229.8 ± 3.4 m/s
298.16 K, 200800 kPa	1821.6 ± 2.5 m/s
298.16 K, 300500 kPa	1968.4 ± 3 m/s
298.18 K, 450300 kPa	2167.6 ± 3.3 m/s
298.2 K, 50100 kPa	1580.4 ± 2 m/s
298.24 K, 400400 kPa	2102.3 ± 3.2 m/s
298.27 K, 150700 kPa	1743.9 ± 2.5 m/s
298.28 K, 350900 kPa	2038.4 ± 3 m/s
298.29 K, 249200 kPa	1894.6 ± 2.8 m/s
298.3 K, 150800 kPa	1745 ± 2.5 m/s
298.3 K, 299000 kPa	1965.7 ± 3 m/s
298.31 K, 100400 kPa	1662.8 ± 2.3 m/s
298.31 K, 250700 kPa	1897.4 ± 2.8 m/s
298.34 K, 50200 kPa	1580.9 ± 2 m/s
298.34 K, 199800 kPa	1820.7 ± 2.6 m/s
298.35 K, 100 kPa	1492.8 ± 1.9 m/s
298.36 K, 100400 kPa	1664.2 ± 2.3 m/s
298.37 K, 100 kPa	1492.2 ± 2 m/s
298.38 K, 699000 kPa	2448 ± 3.9 m/s
298.41 K, 651700 kPa	2400.7 ± 3.8 m/s
298.42 K, 449900 kPa	2165.5 ± 3.3 m/s
298.43 K, 499700 kPa	2225.8 ± 3.4 m/s
298.43 K, 549200 kPa	2287.7 ± 3.6 m/s
298.45 K, 601800 kPa	2347.7 ± 3.7 m/s
308.06 K, 400400 kPa	2112.6 ± 3.2 m/s
308.07 K, 449300 kPa	2173.3 ± 3.3 m/s
308.08 K, 300500 kPa	1983.1 ± 2.9 m/s
308.09 K, 349400 kPa	2048.7 ± 3.1 m/s
308.09 K, 400000 kPa	2112.1 ± 3.2 m/s
308.09 K, 499500 kPa	2230.5 ± 3.4 m/s
308.09 K, 559700 kPa	2301.4 ± 3.6 m/s
308.09 K, 650800 kPa	2402.2 ± 3.8 m/s
308.09 K, 703600 kPa	2441.6 ± 4 m/s
308.1 K, 250500 kPa	1913.4 ± 2.8 m/s
308.1 K, 299900 kPa	1983.2 ± 2.9 m/s
308.1 K, 350900 kPa	2048.9 ± 3.1 m/s
308.1 K, 601700 kPa	2349.8 ± 3.8 m/s
308.1 K, 698500 kPa	2446.7 ± 3.9 m/s
308.11 K, 100 kPa	1515.3 ± 2 m/s
308.11 K, 160100 kPa	1781.2 ± 2.5 m/s
308.11 K, 650700 kPa	2402.3 ± 3.8 m/s
308.12 K, 149900 kPa	1766.1 ± 2.5 m/s
308.12 K, 200400 kPa	1840.6 ± 2.7 m/s
308.12 K, 200700 kPa	1840.1 ± 2.7 m/s
308.12 K, 299900 kPa	1984.1 ± 2.9 m/s
308.12 K, 400700 kPa	2110.8 ± 3.2 m/s
308.13 K, 51000 kPa	1606 ± 2 m/s
308.13 K, 349800 kPa	2049.7 ± 3.1 m/s
308.13 K, 599600 kPa	2344.5 ± 3.8 m/s
308.14 K, 99700 kPa	1690.4 ± 2.3 m/s
308.14 K, 150300 kPa	1766.1 ± 2.5 m/s
308.14 K, 449900 kPa	2171.7 ± 3.3 m/s
308.14 K, 701600 kPa	2447.4 ± 3.9 m/s
308.15 K, 100 kPa	1514.3 ± 2 m/s and 1514.1 ± 2 m/s
308.15 K, 250800 kPa	1913.1 ± 2.8 m/s
308.15 K, 450900 kPa	2174.9 ± 3.3 m/s
308.15 K, 499400 kPa	2232.5 ± 3.4 m/s
308.16 K, 111000 kPa	1706.1 ± 2.3 m/s
308.16 K, 639800 kPa	2388.9 ± 3.8 m/s
308.17 K, 50300 kPa	1604.9 ± 2 m/s
308.17 K, 99800 kPa	1690 ± 2.3 m/s
308.17 K, 200300 kPa	1839.8 ± 2.7 m/s
308.17 K, 549700 kPa	2292.4 ± 3.6 m/s
308.19 K, 250500 kPa	1913.9 ± 2.8 m/s
308.19 K, 549600 kPa	2291 ± 3.6 m/s
308.21 K, 499700 kPa	2232.3 ± 3.4 m/s
308.22 K, 50600 kPa	1605.5 ± 2 m/s
308.22 K, 599600 kPa	2346.6 ± 3.7 m/s
318.02 K, 200600 kPa	1860.6 ± 2.7 m/s
318.02 K, 350800 kPa	2062 ± 3.1 m/s
318.06 K, 399700 kPa	2122.5 ± 3.2 m/s
318.07 K, 99500 kPa	1705.7 ± 2.3 m/s
318.09 K, 349600 kPa	2062.1 ± 3.1 m/s
318.1 K, 200400 kPa	1860.8 ± 2.7 m/s
318.1 K, 299400 kPa	1995.8 ± 2.9 m/s
318.1 K, 300100 kPa	1998.9 ± 2.9 m/s
